{"source": "patent US20150023989A1", "about": "“NEW ANTIBODY DRUG CONJUGATES (ADCS) AND THE USE THEREOF” (SEATTLE GENETICS, INC., priority 2011, published 2015)", "key": {"[1]": {"test_system": "tubulin", "test": "Fluorescence-based microtubule polymerisation assay", "assay_type": "biochemical", "details": "rate at 1 μM MMAF set at 100%", "method": "Tubulin polymerization was investigated using the “Fluorescence-based Microtubule Polymerisation Assay Kit” from Cytoskeleton (Denver, Colo., USA; order number: BK011). With this assay, GTP is added to unpolymerized tubulin, allowing polymerization to take place spontaneously. The assay is based on the binding of the fluorophore 4′,6-diamidino-2-phenylindole (DAPI) to tubulin. Free and bound DAPI can be differentiated on the basis of different emission spectra.\nIn addition to the buffer control, paclitaxel, with a polymerization-increasing effect, and vinblastin, with a polymerization inhibiting effect, were run additionally as assay controls. Measurement was carried out using 96-well plates with a half base area. The kinetics of the tubulin polymerization were monitored in a Fluorimeter at 37° C. for 1 hour. The excitation wavelength was 355 nm, and emission was monitored at 460 nm. For the region of linear increase within the first 10 minutes, a calculation was made of the change in fluorescence per minute (ΔF/min), which represents the polymerization rate of the microtubuli. The potency of the test substances was quantified on the basis of their respective reduction of the polymerization rate. Table 6 below gives data for the influence of representative working examples on tubulin polymerization."}, "[2]": {"test": "Flux assay using Caco-2 cells (cell permeability)", "assay_type": "in vitro ADME", "details": "human, 2 hours incubation", "method": "The cell permeability of a substance can be investigated by means of in vitro testing in a flux assay using Caco-2 cells [M. D. Troutman and D. R. Thakker, Pharm. Res. 20 (8), 1210-1224 (2003)]. For this purpose, the cells were cultured for 15-16 days on 24-well filter plates. For the determination of permeation, the respective working example was applied in a HEPES buffer to the cells either apically (A) or basally (B) and incubated for 2 hours. After 0 hours and after 2 hours, samples were taken from the cis and trans compartments. The samples were separated by HPLC (Agilent 1200, Böblingen, Germany) using reverse phase columns. The HPLC system was coupled via a Turbo Ion Spray Interface to a Triple Quadropol mass spectrometer API 4000 (Applied Biosystems Applera, Darmstadt, Germany). The permeability was evaluated on the basis of a Papp value, which was calculated using the formula published by Schwab et al. [D. Schwab et al., J. Med. Chem. 46, 1716-1725 (2003)]."}, "[3]": {"target": "T1, P-glycoprotein (P-gp) (Homo sapiens, UniProt P08183)", "T1 construct": "expressed in transfected cells; host or cells: LLC-PK1 (pig kidney) cells transfected with human MDR1 (L-MDR1)", "T1 sequence (P08183 whole entry)": "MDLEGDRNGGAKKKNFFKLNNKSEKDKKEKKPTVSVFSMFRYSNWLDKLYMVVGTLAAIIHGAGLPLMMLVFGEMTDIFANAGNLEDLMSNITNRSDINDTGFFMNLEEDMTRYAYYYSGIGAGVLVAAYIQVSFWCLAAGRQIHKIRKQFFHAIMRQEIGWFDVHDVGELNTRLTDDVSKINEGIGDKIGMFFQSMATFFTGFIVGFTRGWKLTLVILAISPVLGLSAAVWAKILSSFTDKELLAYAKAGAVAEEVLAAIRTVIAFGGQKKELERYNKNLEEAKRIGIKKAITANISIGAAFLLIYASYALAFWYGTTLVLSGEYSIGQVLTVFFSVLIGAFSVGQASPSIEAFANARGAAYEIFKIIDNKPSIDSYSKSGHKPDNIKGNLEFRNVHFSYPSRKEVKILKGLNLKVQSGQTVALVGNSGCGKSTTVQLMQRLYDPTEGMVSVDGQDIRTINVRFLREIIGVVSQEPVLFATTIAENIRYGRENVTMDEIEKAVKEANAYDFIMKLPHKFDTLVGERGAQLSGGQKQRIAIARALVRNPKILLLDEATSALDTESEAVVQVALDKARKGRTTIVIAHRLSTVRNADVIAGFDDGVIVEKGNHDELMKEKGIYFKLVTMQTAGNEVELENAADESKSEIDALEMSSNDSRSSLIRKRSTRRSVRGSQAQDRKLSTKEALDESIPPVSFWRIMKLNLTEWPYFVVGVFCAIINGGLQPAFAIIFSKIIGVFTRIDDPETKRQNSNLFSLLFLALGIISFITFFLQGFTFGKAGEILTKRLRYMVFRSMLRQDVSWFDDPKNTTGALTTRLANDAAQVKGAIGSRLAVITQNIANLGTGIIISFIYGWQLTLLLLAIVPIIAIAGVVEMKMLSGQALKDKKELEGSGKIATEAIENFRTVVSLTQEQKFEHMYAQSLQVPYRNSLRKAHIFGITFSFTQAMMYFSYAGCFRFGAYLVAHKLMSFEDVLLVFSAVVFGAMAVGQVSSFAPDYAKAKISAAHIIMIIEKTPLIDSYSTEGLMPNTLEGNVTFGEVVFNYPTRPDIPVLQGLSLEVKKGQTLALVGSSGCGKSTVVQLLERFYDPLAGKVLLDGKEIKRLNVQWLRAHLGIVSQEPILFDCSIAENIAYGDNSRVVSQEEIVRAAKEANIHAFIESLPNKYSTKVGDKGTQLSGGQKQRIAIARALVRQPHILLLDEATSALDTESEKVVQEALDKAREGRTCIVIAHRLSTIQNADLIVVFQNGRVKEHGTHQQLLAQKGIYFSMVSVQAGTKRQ", "test": "Flux assay for P-gp substrate properties in L-MDR1 cells", "assay_type": "in vitro ADME", "details": "L-MDR1 cells (P-gp overexpressing LLC-PK1), 2 hours incubation", "method": "The substrate properties of a substance for P-gp (ABCB1) were determined by means of a flux assay using LLC-PK1 cells which overexpress P-gp (L-MDR1 cells) [A. H. Schinkel et al., J. Clin. Invest. 96, 1698-1705 (1995)]. For this purpose, the LLC-PK1 cells or L-MDR1 cells were cultured on 96-well filter plates for 3-4 days. For determination of the permeation, the respective test substance, alone or in the presence of an inhibitor (such as Ivermectin or Verapamil, for example), was applied in a HEPES buffer to the cells either apically (A) or basally (B) and incubated for 2 hours. After 0 hours and after 2 hours, samples were taken from the cis and trans compartments. The samples were separated by HPLC using reverse phase columns. The HPLC system was coupled via a Turbo Ion Spray Interface to a Triple Quadropole mass spectrometer API 3000 (Applied Biosystems Applera, Darmstadt, Germany). The permeability was evaluated on the basis of a Papp value which was calculated using the formula published by Schwab et al. [D. Schwab et al., J. Med. Chem. 46, 1716-1725 (2003)].\nTable 8 below lists permeability data for representative working examples from this assay, which was carried out in L-MDR1 cells: […]"}}, "data": [{"compound": "CC[C@H](C)[C@@H]([C@@H](CC(=O)N1CCC[C@H]1[C@H](OC)[C@@H](C)C(=O)N[C@@H](Cc1c[nH]c2ccccc12)C(=O)O)OC)N(C)C(=O)[C@@H](NC(=O)[C@H](C(C)C)N(C)CCCC(=O)NNC(=O)CCCCCN1C(=O)CC(SC[C@H](N)C(=O)O)C1=O)C(C)C", "note": "(stereo partly drawn) [Example 22, N-(4-{2-[6-(3-{[(2R)-2-Amino-2-carboxyethyl]sulphanyl}-2,5-dioxopyrrolidin-1-yl)hexanoyl]hydrazino}-4-oxobutyl)-N-methyl-L-valyl-N-[(3R,4S,5S)-1-{(2S)-2-[(1R,2R)-3-{[(1S)-1-carboxy-2-(1H-indol-3-yl)ethyl]amino}-1-methoxy-2-methyl-3-oxopropyl]pyrrolidin-1-yl}-3-methoxy-5-methyl-1-oxoheptan-4-yl]-N-methyl-L-valinamide]", "values": [{"measurement": "Tubulin polymerization in the presence of toxophore", "setting": "[1]; toxophore 1 μM", "value": 109, "unit": "%"}, {"measurement": "Tubulin polymerization in the presence of toxophore", "setting": "[1]; toxophore 10 μM", "value": 27, "unit": "%"}, {"measurement": "Papp B→A at 2 h", "setting": "[2]", "value": 0.2, "unit": "×10⁻⁶ cm/s"}, {"measurement": "Papp (B-A)", "setting": "[3]", "value": 0.4, "unit": "×10⁻⁶ cm/s"}]}]}
